For this data set, the target named is Multidrug resistance-associated protein 1 (Homo sapiens, UniProt P33527). As to the kind of experiment: TP_TRANSPORTER: translocation from outer to inner leaflet in MRP1-asolectin proteoliposome. Type of data set: functional, subcellular.
Chain of Multidrug resistance-associated protein 1 (P33527 whole entry): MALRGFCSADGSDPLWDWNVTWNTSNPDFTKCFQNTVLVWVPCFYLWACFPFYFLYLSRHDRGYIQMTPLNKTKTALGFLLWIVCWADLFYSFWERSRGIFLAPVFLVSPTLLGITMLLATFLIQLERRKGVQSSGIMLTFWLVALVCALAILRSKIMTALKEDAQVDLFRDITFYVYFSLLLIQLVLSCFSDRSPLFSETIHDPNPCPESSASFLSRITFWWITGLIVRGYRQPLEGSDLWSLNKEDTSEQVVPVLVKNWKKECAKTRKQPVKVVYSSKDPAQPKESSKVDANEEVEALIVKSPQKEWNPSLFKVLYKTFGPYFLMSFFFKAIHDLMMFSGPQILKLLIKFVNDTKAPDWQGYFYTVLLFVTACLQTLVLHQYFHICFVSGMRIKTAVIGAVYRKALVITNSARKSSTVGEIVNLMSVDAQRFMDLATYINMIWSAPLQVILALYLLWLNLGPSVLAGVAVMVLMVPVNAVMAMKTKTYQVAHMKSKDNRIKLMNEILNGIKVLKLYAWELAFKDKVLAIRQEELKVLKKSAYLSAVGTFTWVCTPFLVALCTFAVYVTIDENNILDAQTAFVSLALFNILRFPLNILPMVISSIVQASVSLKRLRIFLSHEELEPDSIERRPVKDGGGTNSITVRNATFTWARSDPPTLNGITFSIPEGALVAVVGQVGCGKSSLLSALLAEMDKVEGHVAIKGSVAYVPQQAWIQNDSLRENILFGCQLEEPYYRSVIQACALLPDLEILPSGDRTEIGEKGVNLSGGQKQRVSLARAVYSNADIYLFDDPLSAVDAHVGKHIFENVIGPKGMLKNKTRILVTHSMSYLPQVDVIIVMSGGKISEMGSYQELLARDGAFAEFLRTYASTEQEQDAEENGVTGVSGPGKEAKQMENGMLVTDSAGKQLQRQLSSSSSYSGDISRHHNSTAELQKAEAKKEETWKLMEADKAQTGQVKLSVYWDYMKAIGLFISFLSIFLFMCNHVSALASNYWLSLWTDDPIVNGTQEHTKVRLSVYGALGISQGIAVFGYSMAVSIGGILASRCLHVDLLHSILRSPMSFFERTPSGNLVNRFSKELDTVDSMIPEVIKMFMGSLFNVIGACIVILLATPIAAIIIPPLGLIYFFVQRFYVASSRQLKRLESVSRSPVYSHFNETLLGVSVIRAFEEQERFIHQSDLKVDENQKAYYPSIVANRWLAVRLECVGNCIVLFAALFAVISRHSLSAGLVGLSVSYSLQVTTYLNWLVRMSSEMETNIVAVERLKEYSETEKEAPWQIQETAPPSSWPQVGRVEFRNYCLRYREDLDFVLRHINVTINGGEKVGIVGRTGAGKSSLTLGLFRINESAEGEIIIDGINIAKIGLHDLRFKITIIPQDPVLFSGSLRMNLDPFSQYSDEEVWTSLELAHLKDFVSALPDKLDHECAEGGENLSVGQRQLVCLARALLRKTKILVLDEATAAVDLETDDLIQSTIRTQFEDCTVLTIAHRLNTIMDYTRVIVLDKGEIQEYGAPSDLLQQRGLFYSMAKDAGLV

On to `CCCCCC(=O)OCC(COP(=O)([O-])OCC[N+](C)(C)c1ccc([N+](=O)[O-])c2nonc12)OC(=O)CCCCC` (stereo unspecified), for which the Activity result was “substrate []”.

The record behind these values is ChEMBL document CHEMBL2074071, “Fluorescent modified phosphatidylcholine floppase activity of reconstituted multidrug resistance-associated protein MRP1” (Biochim Biophys Acta, 2004).
